Assay [1] concerns B. anthracis Sterne strain (Gram+). It is filed as cell-based, Bacillus anthracis Sterne strain. The following applies: unit assumed.
Assay [2] relates to S. aureus (Gram+). Nature of the assay: Minimum inhibitory concentration (MIC) study of quaternary ammonium biocides. The format is cell-based, Staphylococcus aureus. The following applies: unit assumed.
Assay [3] relates to Escherichia coli (Gram−). The assay is described as above. It is filed as cell-based. The following applies: unit assumed.
The test system of assay [4] is Salmonella typhimurium (Gram−). Described as above. The format is cell-based. The following applies: unit assumed.
Assay [5] concerns S. aureus. Description: Tube dilution method with neutralizing agent to quench residual biocide activity. The format is cell-based, Staphylococcus aureus. The following applies: starting cfu/mL 5.46 × 10^7; NG = no growth.
The subject of assay [6] is B. anthracis Sterne. It is filed as cell-based, Bacillus anthracis Sterne strain.
In assay [7] the test system is E. coli. Nature of the assay: Tube dilution method with neutralizing agent to quench residual biocide activity. The following applies: starting cfu/mL 4.76 × 10^7; NG = no growth. The format is cell-based, Escherichia coli.

For the compound `CCCCCC[N+](C)(C)CCOCCOC.[Br-]` [Entry 2, Hexyl-[2-(2-methoxy-ethoxy)-ethyl]-dimethyl-ammonium bromide], in assay [1], the MIC B. anthracis (Gram+) was > 5 µg/mL. Also, in assay [2], the MIC S. aureus (Gram+) is > 5 µg/mL. Moreover, in assay [3], the MIC E. coli (Gram−) was found to be 2.5 µg/mL. In assay [4], the MIC S. typhimurium (Gram−) is > 5 µg/mL.
`CCCCCC[N+](C)(C)CCOCCOCCOC.[Cl-]` [Entry 3] showed an MIC B. anthracis (Gram+) in assay [1] of 2.5 µg/mL. Also, in assay [2], the MIC S. aureus (Gram+) was > 5 µg/mL. In assay [3], the MIC E. coli (Gram−) came to 2.5 µg/mL. Also, in assay [4], the MIC S. typhimurium (Gram−) is > 5 µg/mL.
In turn, `CCCCCCCC[N+](C)(C)CCOCCO.[Cl-]` [Entry 9, Octyl-(2-(2-hydroxy-ethoxy)-ethyl)dimethylammonium chloride] displayed an MIC B. anthracis (Gram+) in assay [1] of 1.25 µg/mL. In addition, the MIC S. aureus (Gram+) in assay [2] stood at 1.25 µg/mL. This compound displayed an MIC E. coli (Gram−) in assay [3] of 5 µg/mL. The compound further came in with an MIC S. typhimurium (Gram−) in assay [4] of 5 µg/mL.
As for `CCCCCCCC[N+](C)(C)CCOCCOC.[Cl-]` [Entry 6], the MIC B. anthracis (Gram+) in assay [1] was 1.25 µg/mL. Besides, in assay [2], the MIC S. aureus (Gram+) is 0.31 µg/mL. In assay [3], this compound displayed an MIC E. coli (Gram−) of 2.5 µg/mL. In assay [4], this compound returned an MIC S. typhimurium (Gram−) of 5 µg/mL.
For the compound `c1ccncc1` [Pyridinium], the “S. aureus count after biocide, tube dilution method” value in assay [5] is given as 10^6 cfu/mL. Moreover, in assay [6], the “B. anthracis S.S. count after biocide, tube dilution method” value was 10^6 cfu/mL. The “E. Coli count after biocide, tube dilution method” value in assay [7] is 10^7 cfu/mL.
`CCCCCC[N+](C)(C)CCOC.[Br-]` [Entry 1, Hexyl-(2-methoxy-ethyl)-dimethyl-ammonium bromide] came in with an MIC B. anthracis (Gram+) in assay [1] of 5 µg/mL. This compound registered an MIC S. aureus (Gram+) in assay [2] of 2.5 µg/mL. Also, the MIC E. coli (Gram−) in assay [3] amounted to 2.5 µg/mL. This compound gave an MIC S. typhimurium (Gram−) in assay [4] of 2.5 µg/mL.
On to `CCCCCCCC[N+](C)(C)CCOC.[Cl-]` [Entry 5], for which the MIC B. anthracis (Gram+) in assay [1] was < 0.312 µg/mL. The same compound registered an MIC S. aureus (Gram+) in assay [2] of 0.18 µg/mL. In addition, the MIC E. coli (Gram−) in assay [3] turned out to be 0.625 µg/mL. For the same compound, in assay [4], the MIC S. typhimurium (Gram−) was determined as 2.5 µg/mL.
The like results for `CCCCCCCC[N+](C)(C)CCOCCOCCOCCOC.[Cl-]` [Entry 8] were, in that order, 0.312 µg/mL, 0.8 µg/mL, 1.25 µg/mL and 2.5 µg/mL.
Regarding `CCCCCC[N+](C)(C)CCOCCO.[Cl-]` [Entry 10, Hexyl-(2-(2-hydroxy-ethoxy)-ethyl)dimethylammonium chloride], the MIC B. anthracis (Gram+) in assay [1] is > 5 µg/mL. In addition, the MIC S. aureus (Gram+) in assay [2] is > 5 µg/mL. In addition, in assay [3], the MIC E. coli (Gram−) was 5 µg/mL. Moreover, the MIC S. typhimurium (Gram−) in assay [4] was > 5 µg/mL.
Compound `CCCCCC[N+](C)(C)CCOCCOCCOCCOC.[Cl-]` [Entry 4] registered an MIC B. anthracis (Gram+) in assay [1] of 5 µg/mL. The compound also gave an MIC S. aureus (Gram+) in assay [2] of 2.5 µg/mL. Besides, the MIC E. coli (Gram−) in assay [3] turned out to be 2.5 µg/mL. In assay [4], this compound showed an MIC S. typhimurium (Gram−) of 5 µg/mL.
In turn, `CCCCCCCC[N+](C)(C)CCOCCOCCOC.[Cl-]` [Entry 7] displayed an MIC B. anthracis (Gram+) in assay [1] of 0.625 µg/mL. In assay [2], the MIC S. aureus (Gram+) stood at 0.5 µg/mL. Moreover, in assay [3], the MIC E. coli (Gram−) came to 2.5 µg/mL. In assay [4], this compound gave an MIC S. typhimurium (Gram−) of 2.5 µg/mL.

For the origin of these results see patent US7452951B2, “Multifunctional self-decontaminating surface coating” (priority 2004, dated 2008).
